# According to patent US10537518B2, “Homogenization system of drugs into biodegradable polymer: smart polymer system” (Juvic Inc., priority 2015, dated 2020):
# Key:
# [1] = Particle size analysis with particle size analyzer; format: physicochemical; conditions: for size of commercially available crystalline drug: crude powder, before homogenization
# Description: Particle size analysis was performed using a particle size analyzer (Schimdzu, Japan). […] To uniformly mix drugs having a polymer combination and a colloid formulation, the drugs were homogenized at an optimum rotary speed of 21,000 rpm for 5 minutes using a rotor homogenizer (Homogenizer Power Gen 500, Fisher Scientific, USA). Ultrasonication was performed at […] using an ultrasonicator (Sonic vibra cell, USA). In the size analysis, distilled water was used as a solvent, and an average of values obtained reading each of samples three times was calculated. The particle size reading was performed at an interval of 30 minutes due to the tendency of the drug to be crystallized when the drug is exposed to distilled water for a long period of time.
# [2] = Colloid morphology and size by scanning electron microscope (SEM); format: physicochemical; conditions: colloids of HA and PVP 1:1 with drug
# Description: (§1) The morphology of a colloidal structure of a polymer was analyzed using a scanning electron microscope (SEM; equipped with Type JEOL (JSM-7001F) energy-dispersive X-ray (EDX) Oxford ISIS 300 micro-analysis system). For this experiment, platinum coating was performed at 10 mA to protect colloids from high-energy beams. Also, a decrease in the size of the colloids was confirmed using a transmission electron microscope (TEM), and this confirmation was performed on a very thin sample formed on a copper grid as an upper cover provided in the grid. A TEM micrograph was obtained at 120 kV using a JEM 2010 (HC) (JEOL Ltd, USA) microscope. The amorphous form of the drug in the colloidal structure was confirmed using a random XRD analysis on the sample, and continuously scanned at intervals of 3-80° 2θ using an Ultima IV diffractometer (Rigaku Corporation, Japan) with Bragg-Brentano geometry (2θ/θ) having 40 kV/30 mA X-ray and K-beta filter radiations.
# [3] = Colloid size by transmission electron microscope (TEM); format: physicochemical; conditions: colloids of HA and PVP 1:1 with drug
# Description: as §1
# [4] = In vitro drug release by Franz cell diffusion; format: in vitro ADME; conditions: pig skin; for release of drug from SPS microneedles: n=3; for time to diffusion after application: from SPS microneedles
# Description: In vitro analysis was performed using Franz cell diffusion. Microneedles containing 0.1% NR and 0.75% CAP were applied onto the skin of a dead pig, and put on donor moieties of Franz cells. A receptor moiety was composed of PBS including 20% ethanol. A sample was analyzed at intervals of 0, 0.5, 1, 2, 3, 4, 5, 6, 12, and 24 hours. The quantification of NR and CAP was performed at 559 nm and 280 nm using UV-Vis spectroscopy (Jasco, V650) and Ultra Performance Liquid Chromatography (UPLC) (Acquity UPLC, Waters), respectively. The amounts of NR and CAP in a microneedle patch were determined by dissolving the patch in PBS including 10% ethyl acetate and 20% ethanol, respectively. Thereafter, solid-phase extraction was performed using ethyl acetate as an eluent. A microneedle patch having no drug was used as the control. 0.1% NR dissolved in 20% ethyl acetate and CAP dissolved in 40% ethanol were used in a topical formulation model. This model was most widely used for a formulation of a lipophilic compound in which an organic solvent was used to dissolve the lipophilic drug. 1 mL of such a topical formulation was dropped on the skin of a pig until the topical formulation was diffused to an area of approximately 2 cm^2.
# Also, the size of CAP particles released during diffusion of the Franz cells in the skin of a dead pig (FIG. 4C) was measured. PBS solution samples were taken from the Franz cell receptor after 0, 6, 12, 24 hours of application of the CAP microneedles, and the particle sizes of the samples were measured through SEM image analysis.
# [5] = cited from earlier work
# IL-1β = test: Serum IL-1β by ELISA in CIA mice; format: in vivo, DBA/1 mice; conditions: versus RA model
# [6] = homogenized with CMC (10% by weight), 0.1% NR, 0.75% CAP
# [7] = homogenized with HA (10% by weight), 0.1% NR, 0.75% CAP
# [8] = homogenized with PVA (10% by weight), 0.1% NR, 0.75% CAP
# [9] = homogenized with PVP (10% by weight), 0.1% NR, 0.75% CAP
# [10] = homogenized, polymer composition: None
# [11] = in HA and PVP (1:1) smart polymer system
"release of drug from SPS microneedles ([4]; 0.1% NR microneedles, after 8 hours of application)",SMILES,size of commercially available crystalline drug [1],"particle size [1, 6]","particle size [1, 7]","particle size [1, 8]","particle size [1, 9]","particle size [1, 10]","particle size [1, 11]",circular colloidal particle size (SEM) [2],colloidal structure particle size (TEM) [3],time to diffusion after application [4],log P [5],"release of drug from SPS microneedles ([4]; 0.75% CAP microneedles, after 12 hours of application)",decrease of serum IL-1β level (IL-1β)
74%,"CCN(CC)c1ccc2nc3c4ccccc4c(=O)cc-3oc2c1 [NR, Nile Red]",6.723±5 μm,67.733 ± 8 μm,11.083 ± 4 μm,4.243 ± 8 μm,1.564 ± 3 μm,1.797±7 μm,157.4±6 nm,approximately 168±12 nm,161±32 nm,≤ 30 min,5,,
,"COc1cc(CNC(=O)CCCC/C=C/C(C)C)ccc1O [CAP, capsaicin]",4.845±3 μm,43.856 ± 3 μm,9.736 ± 2 μm,2.676 ± 7 μm,1.432 ± 3 μm,0.986±6 μm,167.4±4 nm,approximately 155±8 nm,154±3 nm,within an hour,,86%,approximately 50%
